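The compound was tested at five concentrations on cells cultured in 96-well plates, with a 48-hour exposure period. TGI denotes the concentration required for complete inhibition of growth.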
Assays:
Test in all cases: growth of human tumour cells (NCI), 48 h
[1] = system: 786-0 renal
[2] = system: A498 renal
[3] = system: A549 NSCLC
[4] = system: ACHN renal
[5] = system: CCRF-CEM leukemia
[6] = system: COLO 205 colon
[7] = system: DMS 114 small cell lung
[8] = system: DMS 273 small cell lung
[9] = system: EKVX NSCLC
[10] = system: HCC-2998 colon
[11] = system: HCT-116 colon
[12] = system: HCT-15 colon
[13] = system: HL-60(TB) leukemia
[14] = system: HOP-18 NSCLC
[15] = system: HOP-62 NSCLC
[16] = system: HT29 colon
[17] = system: IGROV1 ovarian
[18] = system: K-562 leukemia
[19] = system: KM12 colon
[20] = system: KM20L2 colon
[21] = system: LOX IMVI melanoma
[22] = system: LXFL 529 NSCLC
[23] = system: M14 melanoma
[24] = system: M19-MEL melanoma
[25] = system: MALME-3M melanoma
[26] = system: MOLT-4 leukemia
[27] = system: NCI-H226 lung
[28] = system: NCI-H23 lung
[29] = system: NCI-H460 lung
[30] = system: NCI-H522 lung
[31] = system: OVCAR-3 ovarian
[32] = system: OVCAR-5 ovarian
[33] = system: OVCAR-8 ovarian
[34] = system: RXF 393 renal
[35] = system: SF-268 CNS
[36] = system: SF-539 CNS
[37] = system: SK-MEL-2 melanoma
[38] = system: SK-MEL-28 melanoma
[39] = system: SK-MEL-5 melanoma
[40] = system: SK-OV-3 ovarian
[41] = system: SN12C renal
[42] = system: SNB-19 CNS
[43] = system: SNB-75 CNS
[44] = system: SR leukemia
[45] = system: SW-620 colon
[46] = system: TK-10 renal
[47] = system: U251 CNS
[48] = system: UACC-257 melanoma
[49] = system: UACC-62 melanoma
[50] = system: UO-31 renal
[51] = system: CAKI-1 renal
[52] = system: DLD-1 colon
[53] = system: HOP-92 NSCLC
[54] = system: RPMI-8226 leukemia
[55] = system: RXF-631 renal
[56] = system: SF-295 CNS
[57] = system: SNB-78 CNS

SMILES: NC(=O)Cn1c(=O)[nH]c(=O)c2[nH]cnc21
- TGI [1]: > 100 µM
- TGI [2]: > 100 µM
- TGI [3]: > 100 µM
- TGI [4]: > 100 µM
- TGI [5]: > 100 µM
- TGI [6]: > 100 µM
- TGI [7]: > 100 µM
- TGI [8]: > 100 µM
- TGI [9]: > 100 µM
- TGI [10]: > 100 µM
- TGI [11]: > 100 µM
- TGI [12]: > 100 µM
- TGI [13]: > 100 µM
- TGI [14]: > 100 µM
- TGI [15]: > 100 µM
- TGI [16]: > 100 µM
- TGI [17]: > 100 µM
- TGI [18]: > 100 µM
- TGI [19]: > 100 µM
- TGI [20]: > 100 µM
- TGI [21]: > 100 µM
- TGI [22]: > 100 µM
- TGI [23]: > 100 µM
- TGI [24]: > 100 µM
- TGI [25]: > 100 µM
- TGI [26]: > 100 µM
- TGI [27]: > 100 µM
- TGI [28]: > 100 µM
- TGI [29]: > 100 µM
- TGI [30]: > 100 µM
- TGI [31]: > 100 µM
- TGI [32]: > 100 µM
- TGI [33]: > 100 µM
- TGI [34]: > 100 µM
- TGI [35]: > 100 µM
- TGI [36]: > 100 µM
- TGI [37]: > 100 µM
- TGI [38]: > 100 µM
- TGI [39]: > 100 µM
- TGI [40]: > 100 µM
- TGI [41]: > 100 µM
- TGI [42]: > 100 µM
- TGI [43]: > 100 µM
- TGI [44]: > 100 µM
- TGI [45]: > 100 µM
- TGI [46]: > 100 µM
- TGI [47]: > 100 µM
- TGI [48]: > 100 µM
- TGI [49]: > 100 µM
- TGI [50]: > 100 µM

SMILES: COc1ccccc1OCC(COC(=O)Nc1ccc(C)cc1)OC(=O)Nc1ccc(C)cc1 (stereo unspecified)
- TGI [1]: 44 µM
- TGI [2]: > 100 µM
- TGI [3]: > 100 µM
- TGI [4]: 67.7 µM
- TGI [51]: 34.3 µM
- TGI [5]: 45.3 µM
- TGI [6]: 32.4 µM
- TGI [52]: 31.8 µM
- TGI [7]: 29.3 µM
- TGI [8]: 32 µM
- TGI [9]: 65.8 µM
- TGI [10]: 35.3 µM
- TGI [11]: 31.3 µM
- TGI [12]: 29.9 µM
- TGI [13]: 37.4 µM
- TGI [14]: 40.3 µM
- TGI [15]: > 100 µM
- TGI [53]: 29 µM
- TGI [16]: 38.3 µM
- TGI [17]: 60.1 µM
- TGI [18]: 45.5 µM
- TGI [19]: 43.4 µM
- TGI [20]: 50 µM
- TGI [21]: 30.2 µM
- TGI [22]: > 100 µM
- TGI [23]: 46.2 µM
- TGI [25]: 48.3 µM
- TGI [26]: 48.8 µM
- TGI [27]: 67.5 µM
- TGI [28]: 63.7 µM
- TGI [29]: 30.3 µM
- TGI [30]: 31.5 µM
- TGI [31]: 33.9 µM
- TGI [32]: 47.4 µM
- TGI [33]: 38.4 µM
- TGI [54]: 38.8 µM
- TGI [34]: 20.2 µM
- TGI [55]: 47.2 µM
- TGI [35]: 46.2 µM
- TGI [56]: 49 µM
- TGI [36]: 37.7 µM
- TGI [37]: 31.4 µM
- TGI [38]: 60.8 µM
- TGI [39]: 47.7 µM
- TGI [40]: 47.8 µM
- TGI [41]: 42.3 µM
- TGI [42]: 46.7 µM
- TGI [43]: 69.1 µM
- TGI [57]: 91.6 µM
- TGI [44]: 59.6 µM
- TGI [45]: 28.1 µM
- TGI [46]: 47 µM
- TGI [47]: 27.3 µM
- TGI [48]: 49.7 µM
- TGI [49]: 30.6 µM
- TGI [50]: 34.3 µM

Source: PubChem BioAssay (NCI)
